Assay results as given in patent US8134015B2, “Compound inhibiting in vivo phosphorous transport and medicine containing the same” (Kyowa Hakko Kirin Co., Ltd., priority 2003, dated 2012).
pIC50: −log10 of the molar value.

Target: T1, rat NaPi-2b (Rattus norvegicus, UniProt Q9JJ09)
T1 construct: expressed in transfected cells; host or cells: Xenopus oocytes injected with cRNA
T1 sequence (Q9JJ09 1-695): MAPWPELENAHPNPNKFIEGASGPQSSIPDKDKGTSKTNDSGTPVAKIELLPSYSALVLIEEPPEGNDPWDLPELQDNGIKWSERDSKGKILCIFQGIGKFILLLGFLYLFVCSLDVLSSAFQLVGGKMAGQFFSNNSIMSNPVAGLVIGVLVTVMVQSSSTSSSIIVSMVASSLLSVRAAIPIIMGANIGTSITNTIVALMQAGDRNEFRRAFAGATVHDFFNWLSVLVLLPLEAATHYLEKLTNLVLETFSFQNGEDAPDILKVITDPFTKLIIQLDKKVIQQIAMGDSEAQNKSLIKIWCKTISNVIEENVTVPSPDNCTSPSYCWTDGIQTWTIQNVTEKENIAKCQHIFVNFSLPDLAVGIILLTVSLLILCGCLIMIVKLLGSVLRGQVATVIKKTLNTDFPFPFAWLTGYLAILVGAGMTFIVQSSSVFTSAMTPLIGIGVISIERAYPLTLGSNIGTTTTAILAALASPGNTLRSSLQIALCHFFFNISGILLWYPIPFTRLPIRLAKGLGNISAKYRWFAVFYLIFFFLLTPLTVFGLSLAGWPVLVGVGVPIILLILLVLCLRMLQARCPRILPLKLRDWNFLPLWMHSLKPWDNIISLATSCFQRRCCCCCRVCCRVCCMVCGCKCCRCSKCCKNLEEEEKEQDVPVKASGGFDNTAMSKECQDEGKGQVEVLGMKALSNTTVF
Assay: Sodium-dependent phosphate uptake of Xenopus oocytes which expressed NaPi-2b (32P)
Format: cell-based
Details: Xenopus oocytes expressing rat NaPi-2b, 32P radioactive phosphorus; read-out: IC50 (phosphate uptake inhibitory activity)
How it was run: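 Inhibition at 300 μM and 100 μM was read off one inhibition curve of 32P phosphate uptake. Uptake was measured in Xenopus oocytes cultured 2 days after injection of cRNA for cloned rat NaPi-2b.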

| pIC50 | SMILES |
| --- | --- |
| > 6.00 | COc1ccc(C(=O)Nc2ccc(I)cc2C(=O)N/N=C/c2ccc(Cl)c(C(F)(F)F)c2)cc1OC [Compound 209, N-[2-(4-Chloro-3-trifluoromethyl-benzylidene-hydrazinocarbonyl)-4-iodo-phenyl]-3,4-dimethoxy-benzamide] |
| 4.46 | Cn1cccc1/C=N/NC(=O)c1ccccc1NC(=O)c1ccncc1 [Compound 210, N-[2-(1-Methyl-1H-pyrrol-2-ylmethylene-hydrazinocarbonyl)-phenyl]-isonicotinamide] |
| 4.16 | Cn1cccc1/C=N/NC(=O)c1cc(Br)ccc1NC(=O)c1cccnc1 [Compound 211, N-[4-Bromo-2-(1-methyl-1H-pyrrol-2-ylmethylene-hydrazinocarbonyl)-phenyl]-nicotinamide] |
| 4.15 | Cn1cccc1/C=N/NC(=O)c1cc(Cl)ccc1NC(=O)c1cccnc1 [Compound 212, N-[4-Chloro-2-(1-methyl-1H-pyrrol-2-ylmethylene-hydrazinocarbonyl)-phenyl]-nicotinamide] |
| 4.78 | COc1ccc(C(=O)Nc2ccccc2C(=O)N/N=C(\C)c2cccc(F)c2)cc1OC [Compound 213, N-{2-[1-(3-Fluoro-phenyl)-ethylidene-hydrazinocarbonyl]-phenyl}-3,4-dimethoxy-benzamide] |
| 5.40 | COc1ccc(C(=O)Nc2ccc(Br)cc2C(=O)N/N=C(\C)c2cccc(F)c2)cc1OC [Compound 214, N-{4-Bromo-2-[1-(3-fluoro-phenyl)-ethylidene-hydrazinocarbonyl]-phenyl}-3,4-dimethoxy-benzamide] |
| > 5.52 | C/C(=N\NC(=O)c1cc(Br)ccc1NC(=O)c1cccnc1)c1cccc(C)c1 [Compound 215, N-[4-Bromo-2-(1-m-toluyl-ethylidene-hydrazinocarbonyl)-phenyl]-nicotinamide] |
| 4.66 | C/C(=N\NC(=O)c1cc(Br)ccc1NC(=O)c1cccnc1)c1ccc(C)cc1 [Compound 216, N-[4-Bromo-2-(1-p-toluyl-ethylidene-hydrazinocarbonyl)-phenyl]-nicotinamide] |
| 4.95 | C/C(=N\NC(=O)c1cc(Cl)ccc1NC(=O)c1cccnc1)c1ccc(C)cc1 [Compound 217, N-[4-Chloro-2-(1-p-toluyl-ethylidene-hydrazinocarbonyl)-phenyl]-nicotinamide] |
| 5.39 | Cc1cc(/C=N/NC(=O)c2ccccc2NC(=O)c2cccnc2)oc1C [Compound 218, N-[2-(4,5-Dimethyl-furan-2-ylmethylene-hydrazinocarbonyl)-phenyl]-nicotinamide] |
| 5.04 | Cc1cc(/C=N/NC(=O)c2ccccc2NC(=O)c2ccncc2)oc1C [Compound 219, N-[2-(4,5-Dimethyl-furan-2-ylmethylene-hydrazinocarbonyl)-phenyl]-isonicotinamide] |
| 5.03 | Cc1cc(/C=N/NC(=O)c2cc(Br)ccc2NC(=O)c2cccnc2)oc1C [Compound 220, N-[4-Bromo-2-(4,5-dimethyl-furan-2-ylmethylene-hydrazinocarbonyl)-phenyl]-nicotinamide] |
| 5.02 | Cc1cc(/C=N/NC(=O)c2cc(Br)ccc2NC(=O)c2ccncc2)oc1C [Compound 221, N-[4-Bromo-2-(4,5-dimethyl-furan-2-ylmethylene-hydrazinocarbonyl)-phenyl]-isonicotinamide] |
| 5.05 | Cc1cc(/C=N/NC(=O)c2cc(Cl)ccc2NC(=O)c2cccnc2)oc1C [Compound 222, N-[4-Chloro-2-(4,5-dimethyl-furan-2-ylmethylene-hydrazinocarbonyl)-phenyl]-nicotinamide] |
| 4.95 | Cc1cc(/C=N/NC(=O)c2cc(Cl)ccc2NC(=O)c2ccncc2)oc1C [Compound 223, N-[4-Chloro-2-(4,5-dimethyl-furan-2-ylmethylene-hydrazinocarbonyl)-phenyl]-isonicotinamide] |
| 4.21 | O=C(Nc1ccccc1C(=O)N/N=C/c1ccccc1F)c1ccccc1 [Compound 225, N-[2-(2-Fluoro-benzylidene-hydrazinocarbonyl)-phenyl]-benzamide] |
| 5.77 | O=C(Nc1ccccc1C(=O)N/N=C/c1cccc(F)c1)c1ccccc1 [Compound 226, N-[2-(3-Fluoro-benzylidene-hydrazinocarbonyl)-phenyl]-benzamide] |
| 5.13 | COc1ccc(C(=O)Nc2cc(OC)c(OC)cc2C(=O)N/N=C/c2ccccc2)cc1OC [Compound 227, N-[2-(Benzylidene-hydrazinocarbonyl)-4,5-dimethoxy-phenyl]-3,4-dimethoxy-benzamide] |
| 4.65 | O=C(Nc1ccccc1C(=O)N/N=C/c1ccccc1Br)c1ccccc1 [Compound 228, N-[2-(2-Bromo-benzylidene-hydrazinocarbonyl)-phenyl]-benzamide] |
| 5.20 | Cc1ccccc1/C=N/NC(=O)c1ccccc1NC(=O)c1ccccc1 [Compound 229, N-[2-(2-Methyl-benzylidene-hydrazinocarbonyl)-phenyl]-benzamide] |

| SMILES | pIC50 |
| --- | --- |
| O=C(Nc1ccccc1C(=O)N/N=C/c1ccccc1)c1ccccc1 [Compound 224, N-[2-(Benzylidene-hydrazinocarbonyl)-phenyl]-benzamide] | 4.70 |

Same assay, conditions: phosphate uptake, oocytes expressing rat NaPi-2b; 300 μM, determined from inhibition curve

| inhibition at 300 µM | SMILES |
| --- | --- |
| 50.4% | COc1ccc(C(=O)Nc2cc(OC)c(OC)cc2C(=O)N/N=C/c2ccccc2C)cc1OC [Compound 230, N-[4,5-Dimethoxy-2-(2-methyl-benzylidene-hydrazinocarbonyl)-phenyl]-3,4-dimethoxy-benzamide] |
| 32.8% | COc1ccc(C(=O)Nc2ccccc2C(=O)N/N=C/c2ccccc2Cl)cc1OC [Compound 231, N-[2-(2-Chloro-benzylidene-hydrazinocarbonyl)-phenyl]-3,4-dimethoxy-benzamide] |
| 44.9% | COc1ccc2cc(/C=N/NC(=O)c3ccccc3NC(=O)c3ccc(OC)c(OC)c3)ccc2c1 [Compound 232, 3,4-Dimethoxy-N-[2-(6-methoxy-naphthalen-2-ylmethylene-hydrazinocarbonyl)-phenyl]-benzamide] |
| 33.6% | COc1ccc(C(=O)Nc2ccccc2C(=O)N/N=C/c2ccc(-c3ccccc3)cc2)cc1OC [Compound 233, N-[2-(Biphenyl-4-ylmethylene-hydrazinocarbonyl)-phenyl]-3,4-dimethoxy-benzamide] |
| 37.9% | COc1ccc(C(=O)Nc2ccccc2C(=O)N/N=C/c2ccc(Br)cc2)cc1OC [Compound 234, N-[2-(4-Bromo-benzylidene-hydrazinocarbonyl)-phenyl]-3,4-dimethoxy-benzamide] |
| 47.9% | O=C(Nc1ccccc1C(=O)N/N=C/C=C/c1ccccc1)c1ccccc1 [Compound 235, N-[2-(3-Phenyl-allylidene-hydrazinocarbonyl)-phenyl]-benzamide] |
| 49.4% | O=C(Nc1ccccc1C(=O)N/N=C/c1ccccc1F)c1ccccc1F [Compound 236, 2-Fluoro-N-[2-(2-fluoro-benzylidene-hydrazinocarbonyl)-phenyl]-benzamide] |
| 33.1% | O=C(Nc1ccccc1C(=O)N/N=C/c1cccc(F)c1)c1ccccc1F [Compound 237, 2-Fluoro-N-[2-(3-fluoro-benzylidene-hydrazinocarbonyl)-phenyl]-benzamide] |
| 30.6% | Cc1cccc(/C=N/NC(=O)c2ccccc2NC(=O)c2ccccc2F)c1 [Compound 238, 2-Fluoro-N-[2-(3-methyl-benzylidene-hydrazinocarbonyl)-phenyl]-benzamide] |
